{
  "source": "patent US10961286B2",
  "about": "“Nucleic acids, vectors, host cells, and methods for recombinantly producing water-soluble membrane proteins” (CORNELL UNIVERSITY, priority 2014, dated 2021)",
  "molecules": {"B1": {"name": "detergent-solubilized cyt b5: wild-type human cytochrome b5 that had been detergent solubilized (protein)", "chain": "MAEQSDEAVKYYTLEEIQKHNHSKSTWLILHHKVYDLTKFLEEHPGGEEVLREQAGGDATENFEDVGHSTDAREMSKTFIIGELHPDDRPKLNKPPETLITTIDSSSSWWTNWVIPAISAVAVALMYRLYMAED"}, "B2": {"name": "cyt b5: human cytochrome b5, 134-residue bitopic membrane protein (protein, UniProt P00167 1-134, looked up)", "chain": "B1 chain", "modifications": "full-length", "notes": "human cytochrome b5, 134-residue bitopic membrane protein"}},
  "key": {"[1]": {"target": "in vitro solubilized EmrE (Escherichia coli, UniProt P23895)", "conditions": "cited from earlier work"}, "[2]": {"target": "T1, EmrE (dimeric, detergent-free OspA-EmrE-ApoAI*) (UniProt P02647+P23895)", "T1 construct": "made in house; host or cells: E. coli BL21(DE3), pET28a", "assay": "Ligand binding by tryptophan fluorescence quenching, in vivo solubilized EmrE", "parameters": "species or system E. coli", "conditions": "for binding affinity of OspA-EmrE-ApoAI* compared to detergent-solubilized EmrE: 10 μM protein, EmrE comparator in DDM buffer", "protocol": "Fluorescence spectra of protein samples were collected using a Fluorolog-Tau-3 time-resolved spectrofluorometer (Horiba). Protein concentration of OspA-EmrE-ApoAI* in SEC buffer and EmrE in DDM containing buffer (20 mM Tris-HCl, pH 7.5, 150 mM NaCl, and 0.08% w/v DDM) was 10 μM. Fluorescence spectra using a 295-nm excitation were collected after each volume of ligand. A small magnetic stir bar was added to the 1-cm path-length quartz cuvette containing either the sample or buffer. The stirring speed was set such that the surface was not noticeably disturbed. Approximately 1 min was allowed between the addition of ligand and the beginning of spectra collection. A total of 3 replicates were performed with the first sample preparation to control for experimental variability. After this, only one experimental replicate of the following second and third sample preparations were performed. Thus, each ligand-binding curve reflects the average of 3 replicates from 3 different protein preparations to control for biological and preparation variability. A 10-nm slit width was used for both excitation and emission. The interval was set at 2.0 nm and the integration time at 0.1 s. Only one scan of the emission between 300 and 400 nm was collected per titration. […] Quenching of fluorescence was recorded and plotted using GraphPad PRISM 6.\nIt was next determined whether EmrE that had been solubilized by fusion to ApoAI* was able to bind to known ligands. […] There are a total of 14 aromatic amino acids in EmrE (4 tryptophans, 5 tyrosines, and 5 phenylalanines), some of which participate in ligand binding and protein stability and permit determination of binding constants based on fluorescence quenching (Bay et al., “Spectroscopic Analysis of Small Multidrug Resistance Protein EmrE in the Presence of Various Quaternary Cation Compounds,” Biochim. Biophys. Acta 1818:1318-31 (2012), which is hereby incorporated by reference in its entirety). The ligand binding activity of dimeric, detergent-free OspA-EmrE-ApoAI* was measured and compared to detergent-solubilized EmrE. […]"}, "CYP17A1": {"target": "T2, CYP17A1 (Homo sapiens, UniProt P05093)", "T2 construct": "microsomes containing native CYP17A1 (5 pmol); made in house; host or cells: transformed yeast (microsomes)", "T2 sequence (P05093 1-508)": "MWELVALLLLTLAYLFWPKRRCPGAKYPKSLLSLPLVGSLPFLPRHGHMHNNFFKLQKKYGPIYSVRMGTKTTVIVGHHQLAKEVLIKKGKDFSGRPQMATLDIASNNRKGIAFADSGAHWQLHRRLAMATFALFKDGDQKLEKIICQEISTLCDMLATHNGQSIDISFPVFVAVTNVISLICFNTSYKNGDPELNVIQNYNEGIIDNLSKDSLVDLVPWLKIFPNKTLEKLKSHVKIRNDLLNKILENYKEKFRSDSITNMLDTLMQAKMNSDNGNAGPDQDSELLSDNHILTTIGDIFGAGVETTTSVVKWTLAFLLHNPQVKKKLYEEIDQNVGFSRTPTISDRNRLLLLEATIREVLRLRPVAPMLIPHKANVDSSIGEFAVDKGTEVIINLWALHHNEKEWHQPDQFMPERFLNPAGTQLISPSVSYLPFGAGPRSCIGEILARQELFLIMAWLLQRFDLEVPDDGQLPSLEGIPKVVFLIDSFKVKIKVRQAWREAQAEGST", "assay": "Lyase assay: augmentation of CYP17A1 lyase activity by cyt b5 variants", "type": "biochemical", "protocol": "In a 2-ml polypropylene tube, microsomes containing native CYP17A1 (5 pmol) and cytochrome P450 oxidoreductase ([…]), at room temperature for 5 min before adding substrate. The reaction mixture was then diluted to 0.2 ml with 50 mM potassium phosphate buffer (pH 7.4), and substrate 17-hydroxypregnelonone (17-P5; 5 μM with 80,000 CPM in methanol, 2% of incubation volume) was added. The resulting mixture was pre-incubated at 37° C. for 3 min before adding NADPH (1 mM) and incubating at 37° C. for another 20 min. The reaction mixture was extracted with 1 ml dichloromethane, and the organic phase was dried under nitrogen flow. Steroids were analyzed using an Agilent 1260 Infinity HPLC system with UV detector and β-RAM4 in-line scintillation counter (LabLogic, Brandon, Fla.). Extracted steroid products were dissolved in 20 μl of methanol, and 5 μl injections were resolved with a 50×2.1 mm, 2.6 μm, C8 Kinetex column (Phenomenex, Torrance, Calif.), equipped with a guard column at a flow rate of 0.4 mL min^−1. A methanol/water linear gradient was used: 27% methanol from 0 to 0.5 min, 39% to 16 min, 44% to 20 min, 60% to 22 min, 71% to 30 min, 75% to 30.5 min, 27% to 33 min. Products were identified by retention times of external standards chromatographed at the beginning and ends of the experiments. The flow rate of the scintillation cocktail (Bio-SafeII, Research Products International, Mount Prospect, Ill.) was 1.2 mL min^−1, and the data were processed with Laura4 software (LabLogic)."}, "[3]": {"target": "T3, cytochrome P450c17 (17α-hydroxylase/17,20-lyase; CYP17A1) (Homo sapiens, UniProt P05093)", "T3 sequence (P05093 1-508)": "T2 sequence (P05093 1-508)", "conditions": "cited from earlier work"}},
  "note": "Read-outs that look alike come from different tables or passages of the source.",
  "data": [
    {"molecule": "C[n+]1ccc(-c2cc[n+](C)cc2)cc1", "note": "[MV, methyl viologen]", "values": [
      {"measurement": "Kd", "setting": "[1]; in vitro solubilized EmrE in dodecylmaltoside", "value": 46.2, "unit": "µM"},
      {"measurement": "Kd", "setting": "[1]; in vitro solubilized EmrE in small unilamellar vesicles", "value": 38.2, "unit": "µM"},
      {"measurement": "Kd", "setting": "[1]; in vitro solubilized EmrE in sodium dodecyl sulphate", "value": 5.4, "unit": "µM"},
      {"measurement": "binding affinity of OspA-EmrE-ApoAI* compared to detergent-solubilized EmrE", "setting": "[2]", "value": "higher"},
      {"measurement": "Kd", "setting": "[2]; in vivo solubilized EmrE, detergent-free", "value": 48, "unit": "µM"}
    ]},
    {"molecule": "c1ccc([P+](c2ccccc2)(c2ccccc2)c2ccccc2)cc1", "note": "[TPP+, tetraphenylphosphonium]", "values": [
      {"measurement": "binding affinity of OspA-EmrE-ApoAI* compared to detergent-solubilized EmrE", "setting": "[2]", "value": "higher"}
    ]},
    {"molecule": "B1", "values": [
      {"measurement": "stimulation of lyase activity compared to the in vivo solubilized version", "setting": "CYP17A1", "value": "slightly better stimulator of lyase activity"},
      {"measurement": "stimulation of CYP17A1 lyase activity (DHEA formed from 17-P5)", "setting": "CYP17A1; 5-25 pmol cyt b5 variant", "value": "plateaued"},
      {"measurement": "stimulation of CYP17A1 lyase activity", "setting": "CYP17A1; at slightly lower concentrations", "value": "dose-dependent stimulation"},
      {"measurement": "stimulation of 17,20-lyase activity", "setting": "[3]; recombinant cyt b5 from E. coli, literature", "value": "stimulated 17,20-lyase activity"}
    ]},
    {"molecule": "B2", "values": [
      {"measurement": "increase of the rate of the 17,20-lyase reaction", "setting": "[3]; a molar equivalent of cyt b5", "value": 10, "unit": "fold"}
    ]}
  ]
}
